Literature values as cited in patent EP0719130B1, “COMPLEX CALCIUM AND FLUORIDE CONTAINING MOUTH RINSES, DENTIFRICES, AND CHEWABLE TABLETS” (AMERICAN DENTAL ASSOCIATION HEALTH FOUNDATION, priority 1993, dated 1995).

Conditions: buffer acid or salt

| Compound | pK |
| --- | --- |
| OCC(O)CO [glycerol] | 14.15 |
| tyrosine salts | 8.4 |
| O=S(=O)(O)CCN1CCN(CCO)CC1 [HEPES] | 7.4 |
